Laboratory results taken from ChEMBL document CHEMBL3885861, “Open TG-GATES”.

Organism: Rattus norvegicus
Assay: Open TG-GATES - Regimen: Daily Repeat
Format: toxicity, organism-based, Sprague-Dawley
Design: regimen Daily Repeat, gender Male, age 6 weeks
Settings: in vivo, iv, route intravenous injection; for gamma-GTP / ALP / ALT / AST / BUN / CRE / DBIL / GLC / IP / K / LDH / PL / RALB / TBIL / TC / TP / TG: tissue Plasma; for APTT / Bas / Eos / Fbg / Hb / Ht / Lym / MCH / MCHC / Mono / Neu / PT / Plat / RBC / Ret / WBC / MCV: tissue Blood; for KIDNEY_L / KIDNEY_R / KIDNEY_TOTAL: tissue Kidney; for LIVER: tissue Liver
[1] = 30 mg/kg, 72 h, dose level Middle, time 3 day
[2] = 30 mg/kg, […], dose level Middle, time 7 day
[3] = 30 mg/kg, […], dose level Middle, time 14 day
[4] = 30 mg/kg, […], dose level Middle, time 28 day
[5] = 100 mg/kg, 72 h, dose level High, time 3 day
[6] = 100 mg/kg, […], dose level High, time 7 day
[7] = 100 mg/kg, […], dose level High, time 14 day
[8] = 100 mg/kg, […], dose level High, time 28 day

GENTAMICIN
gamma-GTP (10 mg/kg, […], dose level Low, time 28 day): 2 IU/L | TERMINAL_BW [1]: 231.1 g | APTT [1]: 22 s | Bas [1]: 0% | Eos [1]: 1% | Fbg [1]: 292.8 mg/dL | Hb [1]: 12.8 g/dL | Ht [1]: 37.4% | Lym [1]: 75.4% | MCH [1]: 21 pg | MCHC [1]: 34.2% | Mono [1]: 3.2% | Neu [1]: 19.8% | PT [1]: 16.5 s | Plat [1]: 116.2 x10_4/uL | RBC [1]: 608.6 x10_4/ul | Ret [1]: 5.4% | WBC [1]: 99.7 x10_2/uL | KIDNEY_L [1]: 1 g | KIDNEY_R [1]: 1 g | KIDNEY_TOTAL [1]: 2 g | ALP [1]: 1568.4 IU/L | ALT [1]: 38.4 IU/L | AST [1]: 70.6 IU/L | BUN [1]: 19 mg/dL | CRE [1]: 0.2 mg/dL | DBIL [1]: 0 mg/dL | GLC [1]: 170.6 mg/dL | IP [1]: 6.8 mg/dL | K [1]: 4.7 meq/L | LDH [1]: 175 IU/L | PL [1]: 147.8 mg/dL | RALB [1]: 3 g/dL | TBIL [1]: 0.008 mg/dL | TC [1]: 69.2 mg/dL | TP [1]: 5.4 g/dL | gamma-GTP [1]: 1.8 IU/L | TERMINAL_BW [2]: 256.1 g | TERMINAL_BW [3]: 289.4 g | TERMINAL_BW [4]: 356.8 g | APTT [2]: 24.3 s | Bas [2]: 0% | Eos [2]: 1.2% | Fbg [2]: 303.4 mg/dL | Ht [2]: 39% | Lym [2]: 75% | MCH [2]: 21 pg | MCHC [2]: 34.7% | MCV [2]: 60.6 fL | Mono [2]: 4% | PT [2]: 15.9 s | Plat [2]: 111.1 x10_4/uL | RBC [2]: 644.4 x10_4/ul | Ret [2]: 4.1% | WBC [2]: 106.4 x10_2/uL | APTT [3]: 22.8 s | Bas [3]: 0% | Eos [3]: 0.8% | Fbg [3]: 296.4 mg/dL | Ht [3]: 40.3% | Lym [3]: 81.4% | MCHC [3]: 35.7% | MCV [3]: 58.2 fL | Mono [3]: 2.2% | Plat [3]: 106 x10_4/uL | RBC [3]: 693.6 x10_4/ul | Ret [3]: 3.2% | WBC [3]: 131.7 x10_2/uL | APTT [4]: 23.3 s | Bas [4]: 0% | Eos [4]: 0.8% | Fbg [4]: 308 mg/dL | Hb [4]: 15.3 g/dL | Ht [4]: 42.9% | Lym [4]: 80.4% | MCH [4]: 19.2 pg | MCHC [4]: 35.7% | MCV [4]: 53.7 fL | Mono [4]: 2.4% | Plat [4]: 107.2 x10_4/uL | RBC [4]: 799 x10_4/ul | Ret [4]: 1.8% | WBC [4]: 106 x10_2/uL | KIDNEY_L [2]: 1.1 g | KIDNEY_R [2]: 1.1 g | KIDNEY_TOTAL [2]: 2.1 g | KIDNEY_L [3]: 1.2 g | KIDNEY_R [3]: 1.2 g | KIDNEY_TOTAL [3]: 2.4 g | KIDNEY_L [4]: 1.5 g | KIDNEY_R [4]: 1.6 g | KIDNEY_TOTAL [4]: 3.1 g | LIVER [2]: 10.8 g | LIVER [3]: 10.8 g | LIVER [4]: 12.3 g | ALP [2]: 1481.6 IU/L | ALT [2]: 40.6 IU/L | BUN [2]: 17 mg/dL | CRE [2]: 0.2 mg/dL | DBIL [2]: 0 mg/dL | GLC [2]: 174.8 mg/dL | IP [2]: 6.1 mg/dL | K [2]: 4.5 meq/L | LDH [2]: 152.6 IU/L | PL [2]: 146.8 mg/dL | RALB [2]: 3 g/dL | TBIL [2]: 0.006 mg/dL | TC [2]: 72 mg/dL | TG [2]: 131.4 mg/dL | TP [2]: 5.6 g/dL | gamma-GTP [2]: 1.6 IU/L | ALP [3]: 1265.2 IU/L | ALT [3]: 36.8 IU/L | AST [3]: 67.6 IU/L | CRE [3]: 0.2 mg/dL | DBIL [3]: 0 mg/dL | GLC [3]: 176.4 mg/dL | IP [3]: 5.9 mg/dL | K [3]: 4.3 meq/L | LDH [3]: 144.8 IU/L | PL [3]: 140.2 mg/dL | RALB [3]: 3 g/dL | TBIL [3]: 0.008 mg/dL | TC [3]: 68.6 mg/dL | TG [3]: 114 mg/dL | TP [3]: 5.7 g/dL | gamma-GTP [3]: 1.8 IU/L | ALP [4]: 959 IU/L | ALT [4]: 31 IU/L | CRE [4]: 0.3 mg/dL | DBIL [4]: 0.002 mg/dL | GLC [4]: 176.4 mg/dL | IP [4]: 5.6 mg/dL | K [4]: 4.2 meq/L | LDH [4]: 109.8 IU/L | PL [4]: 130 mg/dL | RALB [4]: 3 g/dL | TBIL [4]: 0.01 mg/dL | TC [4]: 68.4 mg/dL | TG [4]: 103 mg/dL | TP [4]: 5.8 g/dL | gamma-GTP [4]: 2.2 IU/L | TERMINAL_BW [5]: 229.2 g | APTT [5]: 22 s | Bas [5]: 0% | Eos [5]: 1% | Fbg [5]: 294.4 mg/dL | Ht [5]: 38.2% | Lym [5]: 80.8% | MCH [5]: 21 pg | MCHC [5]: 34.3% | MCV [5]: 61.1 fL | Mono [5]: 3.8% | Neu [5]: 13% | PT [5]: 16.5 s | Plat [5]: 115 x10_4/uL | RBC [5]: 625.8 x10_4/ul | Ret [5]: 4.8% | WBC [5]: 83.9 x10_2/uL | KIDNEY_L [5]: 1 g | KIDNEY_R [5]: 1 g | KIDNEY_TOTAL [5]: 2 g | LIVER [5]: 10 g | ALP [5]: 1437 IU/L | AST [5]: 67.4 IU/L | CRE [5]: 0.2 mg/dL | DBIL [5]: 0 mg/dL | GLC [5]: 170 mg/dL | IP [5]: 6.8 mg/dL | K [5]: 4.7 meq/L | LDH [5]: 137.2 IU/L | PL [5]: 131.4 mg/dL | RALB [5]: 3 g/dL | TBIL [5]: 0.014 mg/dL | TC [5]: 64.8 mg/dL | TG [5]: 100 mg/dL | TP [5]: 5.5 g/dL | gamma-GTP [5]: 1.4 IU/L | TERMINAL_BW [6]: 262.4 g | TERMINAL_BW [7]: 275.2 g | TERMINAL_BW [8]: 315.6 g | APTT [6]: 24.3 s | Bas [6]: 0% | Eos [6]: 1.2% | Fbg [6]: 314.2 mg/dL | Lym [6]: 77.6% | MCHC [6]: 34.5% | MCV [6]: 60.6 fL | Mono [6]: 4.2% | Plat [6]: 106.7 x10_4/uL | RBC [6]: 646.4 x10_4/ul | Ret [6]: 4.3% | WBC [6]: 117.3 x10_2/uL | APTT [7]: 23.3 s | Bas [7]: 0% | Eos [7]: 1% | Fbg [7]: 320.8 mg/dL | Lym [7]: 83% | MCH [7]: 21.1 pg | MCHC [7]: 36.2% | MCV [7]: 58.1 fL | Mono [7]: 3% | PT [7]: 16.4 s | Plat [7]: 114.3 x10_4/uL | RBC [7]: 701.8 x10_4/ul | Ret [7]: 1.8% | WBC [7]: 106.6 x10_2/uL | APTT [8]: 23.9 s | Bas [8]: 0% | Eos [8]: 1.2% | Fbg [8]: 282.2 mg/dL | Hb [8]: 14.7 g/dL | Ht [8]: 40.7% | Lym [8]: 83.5% | MCH [8]: 19 pg | MCHC [8]: 36.1% | MCV [8]: 52.6 fL | Mono [8]: 2.2% | Neu [8]: 11.5% | PT [8]: 16.5 s | Plat [8]: 118.3 x10_4/uL | RBC [8]: 773 x10_4/ul | Ret [8]: 1.3% | WBC [8]: 112.9 x10_2/uL | KIDNEY_L [6]: 1.2 g | KIDNEY_R [6]: 1.2 g | KIDNEY_TOTAL [6]: 2.5 g | KIDNEY_L [7]: 1.5 g | KIDNEY_R [7]: 1.5 g | KIDNEY_TOTAL [7]: 3 g | KIDNEY_L [8]: 1.6 g | KIDNEY_R [8]: 1.7 g | KIDNEY_TOTAL [8]: 3.3 g | LIVER [6]: 10.9 g | LIVER [7]: 10.2 g | ALP [6]: 1249 IU/L | ALT [6]: 39.8 IU/L | AST [6]: 73 IU/L | CRE [6]: 0.2 mg/dL | DBIL [6]: 0 mg/dL | GLC [6]: 182.6 mg/dL | IP [6]: 6 mg/dL | K [6]: 4.6 meq/L | LDH [6]: 158.8 IU/L | PL [6]: 139.8 mg/dL | RALB [6]: 3 g/dL | TBIL [6]: 0.004 mg/dL | TC [6]: 71 mg/dL | TG [6]: 91.4 mg/dL | TP [6]: 5.6 g/dL | gamma-GTP [6]: 2 IU/L | ALP [7]: 1114.5 IU/L | ALT [7]: 33.5 IU/L | AST [7]: 71.8 IU/L | BUN [7]: 20 mg/dL | CRE [7]: 0.3 mg/dL | DBIL [7]: 0 mg/dL | IP [7]: 6 mg/dL | K [7]: 4.2 meq/L | PL [7]: 148.8 mg/dL | RALB [7]: 3.1 g/dL | TBIL [7]: 0.015 mg/dL | TC [7]: 81.8 mg/dL | TG [7]: 98.2 mg/dL | TP [7]: 5.7 g/dL | gamma-GTP [7]: 2.5 IU/L | ALP [8]: 662.5 IU/L | AST [8]: 67 IU/L | BUN [8]: 18 mg/dL | CRE [8]: 0.3 mg/dL | DBIL [8]: 0 mg/dL | IP [8]: 5.8 mg/dL | K [8]: 3.6 meq/L | LDH [8]: 109.2 IU/L | PL [8]: 112 mg/dL | RALB [8]: 3.1 g/dL | TBIL [8]: 0.03 mg/dL | TC [8]: 67 mg/dL | TG [8]: 40 mg/dL | TP [8]: 5.9 g/dL | gamma-GTP [8]: 2.5 IU/L
